Counter-ions that a name gives are not always drawn.
system: HBV rcDNA in HepDE19 cells; experiment: HepDE19 assay with bDNA quantitation of HBV rcDNA; format: cell-based, hepatitis B virus (HBV); details: Hepatitis B virus, HepDE19, 168 h, HepDE19 cells, 7 day incubation, rcDNA by Quantigene 2.0 bDNA assay; read-out: DE-19 bDNA EC50
In short: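 HepG2-derived HepDE19 cells, switched to Tet-free medium, were exposed 7 days at 37 °C to compound (8-point ½-log series from 25 μM, 0.5% DMSO). HBV rcDNA measured by bDNA assay with HBV-specific probes; EC50/EC90 by 4-parameter fit. CC50 from CellTiter-Glo ATP on replicate plates after 4 days.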

For `Cc1cc(NC(=O)c2ccc(F)c3c2OCC[C@@H]3NC(=O)OC[C@@H]2CC(=O)N2)ccc1F` [Compound 147, ((S)-4-Oxoazetidin-2-yl)methyl ((S)-5-fluoro-8-((4-fluoro-3-methylphenyl)carbamoyl)chroman-4-yl)carbamate], which EC50 is on record?
The EC50 was 840 nM.

Which EC50 does the source give for `COC(=O)N[C@H]1CCOc2c(C(=O)Nc3ccc(F)c(F)c3)cc(N)cc21` [Compound 148, Methyl (S)-(6-amino-8-((3,4-difluorophenyl)carbamoyl)chroman-4-yl)carbamate] here?
The EC50 was 6400 nM.

How did the EC50 turn out when `CNC(=O)N[C@H]1CCOc2c(C(=O)Nc3ccc(F)c(F)c3)cc(N)cc21` [Compound 149, (S)-6-Amino-N-(3,4-difluorophenyl)-4-(3-methylureido)chromane-8-carboxamide] was run?
The EC50 was 20000 nM.

For `Cc1cc(NC(=O)c2ccc(F)c3c2OCC[C@@H]3NC(=O)CCc2ccccn2)ccc1F` [Compound 151, (S)-5-Fluoro-N-(4-fluoro-3-methylphenyl)-4-(3-(pyridin-2-yl)propanamido)chromane-8-carboxamide], which EC50 is on record?
The EC50 was 560 nM.

With `Cc1cc(NC(=O)c2ccc(F)c3c2OCC[C@@H]3NC(=O)NCCC(=O)O)ccc1F` [Compound 152, (S)-3-(3-(5-Fluoro-8-((4-fluoro-3-methylphenyl)carbamoyl)chroman-4-yl)ureido)propanoic acid] as the molecule, how does the EC50 read?
Its EC50 is 15000 nM.

For `O=C(N[C@H]1CCOc2c(C(=O)Nc3ccc(F)c(Cl)c3)ccc(F)c21)OCCc1ccccn1` [Compound 153, 2-(Pyridin-2-yl)ethyl (S)-(8-((3-chloro-4-fluorophenyl)carbamoyl)-5-fluorochroman-4-yl)carbamate], which EC50 is on record?
The EC50 was 530 nM.

With `O=C1C[C@@H](COC(=O)N[C@H]2CCOc3c(C(=O)Nc4ccc(F)c(Cl)c4)ccc(F)c32)N1` [Compound 154, ((S)-4-Oxoazetidin-2-yl)methyl ((S)-8-((3-chloro-4-fluorophenyl)carbamoyl)-5-fluorochroman-4-yl)carbamate] as the molecule, how does the EC50 read?
Its EC50 is 1100 nM.

Which EC50 does the source give for `O=C1CC[C@H](COC(=O)N[C@H]2CCOc3c(C(=O)Nc4ccc(F)c(Cl)c4)ccc(F)c32)N1` [Compound 155, ((R)-5-Oxopyrrolidin-2-yl)methyl ((S)-8-((3-chloro-4-fluorophenyl)carbamoyl)-5-fluorochroman-4-yl)carbamate] here?
Its EC50 is 1200 nM.

With `O=C1CC[C@@H](COC(=O)N[C@H]2CCOc3c(C(=O)Nc4ccc(F)c(Cl)c4)ccc(F)c32)N1` [Compound 156, ((S)-5-Oxopyrrolidin-2-yl)methyl ((S)-8-((3-chloro-4-fluorophenyl)carbamoyl)-5-fluorochroman-4-yl)carbamate] as the molecule, how does the EC50 read?
The EC50 was 740 nM.

With `Nc1cc(C(=O)Nc2ccc(F)c(F)c2)c2c(c1)[C@@H](NC(=O)OCc1ccccn1)CCO2` [Compound 157, Pyridin-2-ylmethyl (S)-(6-amino-8-((3,4-difluorophenyl)carbamoyl)chroman-4-yl)carbamate] as the molecule, how does the EC50 read?
The EC50 was 11000 nM.

`CC(C)(C)OC(=O)N[C@H]1CCOc2c(C(=O)Nc3ccc(F)c(Cl)c3)ccc(F)c21` [Compound 158, tert-Butyl (S)-(8-((3-chloro-4-fluorophenyl)carbamoyl)-5-fluorochroman-4-yl)carbamate] was tested. Which EC50 did it give?
Its EC50 is 5800 nM.

With `O=C(N[C@H]1CCOc2c(C(=O)Nc3ccc(F)c(Cl)c3)ccc(F)c21)OCCN1CCCC1=O` [Compound 159, 2-(2-Oxopyrrolidin-1-yl)ethyl (S)-(5-fluoro-8-((3-chloro-4-fluorophenyl)carbamoyl)chroman-4-yl)carbamate] as the molecule, how does the EC50 read?
The EC50 was 410 nM.

Which EC50 does the source give for `O=C(N[C@H]1CCOc2c(C(=O)Nc3ccc(F)c(Cl)c3)ccc(F)c21)OCC(=O)N1CCCC1` [Compound 160, 2-Oxo-2-(pyrrolidin-1-yl)ethyl (S)-(8-((3-chloro-4-fluorophenyl)carbamoyl)-5-fluorochroman-4-yl)carbamate] here?
The EC50 was 420 nM.

`CC(=O)N1CC(COC(=O)N[C@H]2CCOc3c(C(=O)Nc4ccc(F)c(C)c4)ccc(F)c32)C1` [Compound 161, (1-Acetylazetidin-3-yl)methyl (S)-(5-fluoro-8-((4-fluoro-3-methylphenyl)carbamoyl)chroman-4-yl)carbamate] was tested. Which EC50 did it give?
Its EC50 is 850 nM.

`Cc1cc(NC(=O)c2ccc(F)c3c2OCC[C@@H]3NC(=O)OC[C@@H]2CCC(=O)N2C)ccc1F` [Compound 166, ((S)-1-Methyl-5-oxopyrrolidin-2-yl)methyl ((S)-5-fluoro-8-((4-fluoro-3-methylphenyl)carbamoyl)chroman-4-yl)carbamate] was tested. Which EC50 did it give?
The EC50 was 1300 nM.

How did the EC50 turn out when `Cc1cc(NC(=O)c2ccc(F)c3c2OCC[C@@H]3NC(=O)OCc2cccc(N3CCOCC3)n2)ccc1F` [Compound 167, (6-Morpholinopyridin-2-yl)methyl (S)-(5-fluoro-8-((4-fluoro-3-methylphenyl)carbamoyl)chroman-4-yl)carbamate] was run?
Its EC50 is 1800 nM.

`Cc1cc(NC(=O)c2ccc(F)c3c2OCC[C@@H]3NC(=O)OC[C@H]2CCC(=O)N2C)ccc1F` [Compound 168, ((R)-1-Methyl-5-oxopyrrolidin-2-yl)methyl ((S)-5-fluoro-8-((4-fluoro-3-methylphenyl)carbamoyl)chroman-4-yl)carbamate] was tested. Which EC50 did it give?
The EC50 was 1600 nM.

`COC(=O)N[C@H]1CCSc2c(C(=O)Nc3ccc(F)c(F)c3)ccc(F)c21` [Compound 171, Methyl (S)-(8-((3,4-difluorophenyl)carbamoyl)-5-fluorothiochroman-4-yl)carbamate] was tested. Which EC50 did it give?
Its EC50 is 4100 nM.

`O=C(N[C@H]1CCSc2c(C(=O)Nc3ccc(F)c(Cl)c3)ccc(F)c21)OCc1ccccn1` [Compound 172] was tested. Which EC50 did it give?
Its EC50 is 2900 nM.

How did the EC50 turn out when `O=C(N[C@@H]1CCSc2c(C(=O)Nc3ccc(F)c(Cl)c3)ccc(F)c21)OCc1ccccn1` [Compound 173] was run?
Its EC50 is 8700 nM.

How did the EC50 turn out when `COC(=O)N[C@H]1CCSc2c(C(=O)Nc3ccc(F)c(Cl)c3)ccc(F)c21` [Compound 174, Methyl (S)-(8-((3-chloro-4-fluorophenyl)carbamoyl)-5-fluorothiochroman-4-yl)carbamate] was run?
Its EC50 is 1600 nM.

How did the EC50 turn out when `O=C(NC1CCNc2c(C(=O)Nc3ccc(F)c(F)c3)cccc21)OCc1ccccn1` (stereo not drawn) [Compound 175, pyridin-2-ylmethyl (8-((3,4-difluorophenyl)carbamoyl)-1,2,3,4-tetrahydroquinolin-4-yl)carbamate] was run?
The EC50 was 12000 nM.

For `COC(=O)NC1CCNc2c(C(=O)Nc3ccc(F)c(Cl)c3)cccc21` (stereo not drawn) [Compound 176, methyl (8-((3-chloro-4-fluorophenyl)carbamoyl)-1,2,3,4-tetrahydroquinolin-4-yl)carbamate], which EC50 is on record?
Its EC50 is 23000 nM.

`COC(=O)N[C@H]1CCCc2c(C(=O)Nc3ccc(F)c(F)c3)cccc21` [Compound 184, Methyl (S)-(5-((3,4-difluorophenyl)carbamoyl)-1,2,3,4-tetrahydronaphthalen-1-yl)carbamate] was tested. Which EC50 did it give?
Its EC50 is 8700 nM.

same assay, conditions: Hepatitis B virus, HepDE19, 168 h, read-out: DE-19 bDNA EC50, HepDE19 cells, 7 day incubation, rcDNA by Quantigene 2.0 bDNA assay

How did the EC50 turn out when `Cc1cc(NC(=O)c2ccc(F)c3c2OCC[C@@H]3NC(=O)NCc2ccccn2)ccc1F` [Compound 150, (S)-5-Fluoro-N-(4-fluoro-3-methylphenyl)-4-(3-(pyridin-2-ylmethyl)ureido)chromane-8-carboxamide] was run?
The EC50 was 1200 nM.

How did the EC50 turn out when `CS(=O)(=O)N1CCC(COC(=O)N[C@H]2CCOc3c(C(=O)Nc4ccc(F)c(Cl)c4)ccc(F)c32)CC1` [Compound 162, (1-(Methylsulfonyl)piperidin-4-yl)methyl (S)-(8-((3-chloro-4-fluorophenyl)carbamoyl)-5-fluorochroman-4-yl)carbamate] was run?
The EC50 was 6100 nM.

With `CN(C)S(=O)(=O)N1CCC(COC(=O)N[C@H]2CCOc3c(C(=O)Nc4ccc(F)c(Cl)c4)ccc(F)c32)CC1` [Compound 163, (1-(N,N-dimethylsulfamoyl)piperidin-4-yl)methyl (S)-(8-((3-chloro-4-fluorophenyl)carbamoyl)-5-fluorochroman-4-yl)carbamate] as the molecule, how does the EC50 read?
The EC50 was 1000 nM.

How did the EC50 turn out when `O=C(N[C@H]1CCOc2c(C(=O)Nc3ccc(F)c(Cl)c3)ccc(F)c21)OCC1CCN(C(=O)CO)CC1` [Compound 164, (1-(2-Hydroxyacetyl)piperidin-4-yl)methyl (S)-(8-((3-chloro-4-fluorophenyl)carbamoyl)-5-fluorochroman-4-yl)carbamate] was run?
The EC50 was 680 nM.

With `CNC(=O)N1CCC(COC(=O)N[C@H]2CCOc3c(C(=O)Nc4ccc(F)c(Cl)c4)ccc(F)c32)CC1` [Compound 165, (1-(Methylcarbamoyl)piperidin-4-yl)methyl (S)-(8-((3-chloro-4-fluorophenyl)carbamoyl)-5-fluorochroman-4-yl)carbamate] as the molecule, how does the EC50 read?
Its EC50 is 350 nM.

`O=C(N[C@H]1CCSc2c(C(=O)Nc3ccc(F)c(F)c3)ccc(F)c21)OCc1ccccn1` [Compound 169, Pyridin-2-ylmethyl (S)-(8-((3,4-difluorophenyl)carbamoyl)-5-fluorothiochroman-4-yl)carbamate hydrochloride] was tested. Which EC50 did it give?
The EC50 was 5300 nM.

For `O=C(N[C@@H]1CCSc2c(C(=O)Nc3ccc(F)c(F)c3)ccc(F)c21)OCc1ccccn1` [Compound 170, Pyridin-2-ylmethyl (R)-(8-((3,4-difluorophenyl)carbamoyl)-5-fluorothiochroman-4-yl)carbamate hydrochloride], which EC50 is on record?
Its EC50 is 21000 nM.

With `CNC(=O)N[C@H]1CCCc2c(C(=O)Nc3ccc(F)c(F)c3)cccc21` [Compound 185, (S)—N-(3,4-Difluorophenyl)-5-(3-methylureido)-5,6,7,8-tetrahydronaphthalene-1-carboxamide] as the molecule, how does the EC50 read?
The EC50 was 9800 nM.

Which EC50 does the source give for `O=C(N[C@H]1CCCc2c(C(=O)Nc3ccc(F)c(F)c3)cccc21)OCc1ccccn1` [Compound 186, Pyridin-2-ylmethyl (S)-(5-((3,4-difluorophenyl)carbamoyl)-1,2,3,4-tetrahydronaphthalen-1-yl)carbamate] here?
Its EC50 is 5600 nM.

Source: patent US11001564B2, “Substituted chromane-8-carboxamide compounds and analogues thereof, and methods using same” (priority 2016, dated 2021)
